Test results from article PMC6631999, “A Universal Photochemical Method to Prepare Carbohydrate Sensors Based on Perfluorophenylazide Modified Polydopamine for Study of Carbohydrate-Lectin Interactions by QCM Biosensor” (Polymers, 2019).

Tests used:
soybean agglutinin (SBA) = target: T1, soybean agglutinin (SBA) (Glycine max, UniProt P05046); assay: QCM biosensor frequency shift (Attana Cell-A200); format: binding
T1 construct: gene LE1; native commercial plant lectin (Vector Laboratories), in solution

peanut agglutinin (PNA) = target: T2, peanut agglutinin (PNA) (Arachis hypogaea, UniProt P02872); assay: QCM biosensor frequency shift (Attana Cell-A200); format: binding; conditions: sugar photochemically immobilised on PFPA-polydopamine sensor; lectin 100 ug/mL; 10 mM PBS pH 7.4; BSA-blocked
T2 construct: native commercial plant lectin (Vector Laboratories), in solution
T2 sequence (P02872 24-273): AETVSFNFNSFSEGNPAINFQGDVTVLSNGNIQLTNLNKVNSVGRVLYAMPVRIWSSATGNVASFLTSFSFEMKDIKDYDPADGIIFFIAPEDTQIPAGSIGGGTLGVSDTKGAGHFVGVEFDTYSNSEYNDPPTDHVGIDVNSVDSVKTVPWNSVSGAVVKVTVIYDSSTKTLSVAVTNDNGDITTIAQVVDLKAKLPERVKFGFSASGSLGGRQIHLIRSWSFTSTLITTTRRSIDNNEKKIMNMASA

T1 sequence (P05046 33-285): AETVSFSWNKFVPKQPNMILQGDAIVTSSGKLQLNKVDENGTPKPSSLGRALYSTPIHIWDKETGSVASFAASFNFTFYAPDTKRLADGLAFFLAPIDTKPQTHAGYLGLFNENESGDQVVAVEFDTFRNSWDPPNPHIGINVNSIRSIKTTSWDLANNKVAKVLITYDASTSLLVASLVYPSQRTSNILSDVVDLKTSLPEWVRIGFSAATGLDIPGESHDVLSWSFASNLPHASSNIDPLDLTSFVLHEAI

## OC[C@H]1OC(O)[C@H](O)[C@@H](O)[C@H]1O (some centres unmarked) [galactose]
Soybean agglutinin (SBA)
  QCM biosensor frequency shift (Attana Cell-A200): SBA has the highest binding with galactose, followed by PNA
Peanut agglutinin (PNA)
  QCM biosensor frequency shift (Attana Cell-A200): both SBA and PNA can bind to galactose, but the binding strengths are different
